In brackets after ≈: the same amount, converted by molar mass. Read-outs that look alike come from different tables or passages of the source.

The term Solubility denotes the concentration that dissolves in the medium under given conditions. As a reminder, the GI50 is the concentration giving 50% growth inhibition.

Data set [1] in a line: Solubility in distilled water. Here is the method: The remaining salts (3e-h) were prepared directly from the free acid 10b by treatment with the appropriate base or amino acid. The solubilities of each salt and of precursor 9 were measured in distilled water at room temperature.
The subject of data set [2] is murine P388 lymphocytic leukemia cell line. As to the kind of experiment: Murine P388 lymphocytic leukemia cell line growth inhibition. The class given is cell-based. The following applies: for Activity against P388 (in words): murine P388 lymphocytic leukemia cell line.
A further data set concerns prostate (DU-145). As to the kind of experiment: Human cancer cell line minipanel: DU-145. The class given is cell-based. Particulars: for GI50: read-out: GI50 DU-145 (nanomolar value in parentheses).
For the next data set, the system named is pancreas (BXPC-3). As to the kind of experiment: Human cancer cell line minipanel: BXPC-3. In kind it is cell-based. Particulars: for GI50: read-out: GI50 BXPC-3 (nanomolar value in parentheses).
Data set [3] concerns minipanel of human cancer cell lines. As to the kind of experiment: Minipanel of human cancer cell lines (summary). The following applies: for GI50 (order of magnitude over the cell lines): summary of cancer cell growth inhibition. The class given is cell-based.
For a further data set, the system named is breast (MCF-7). As to the kind of experiment: Human cancer cell line minipanel: MCF-7. In kind it is cell-based. Particulars: for GI50: read-out: GI50 MCF-7 (nanomolar value in parentheses).
A further data set deals with CNS (SF-268). The data set is described as follows: Human cancer cell line minipanel: SF-268. In kind it is cell-based. The following applies: for GI50: read-out: GI50 SF-268 (nanomolar value in parentheses).
Another data set relates to colon (KM20L2). As to the kind of experiment: Human cancer cell line minipanel: KM20L2. The following applies: for GI50: read-out: GI50 KM20L2 (nanomolar value in parentheses). In kind it is cell-based.
The test system of another data set is lung (NCI-H460). The data set is described as follows: Human cancer cell line minipanel: NCI-H460. In kind it is cell-based. Particulars: for GI50: read-out: GI50 NCI-H460 (nanomolar value in parentheses).
Data set [4] is described as follows: Storage stability of the free phosphoric acid. The class given is physicochemical. The following applies: storable for short periods as methanolic solution (<0.01 M at 4° C.). The text has this: The most soluble were the sodium (3b) and potassium (3c) salts (Table 2).
Setting [5] is: murine lymphocytic leukemia (P388).
[6] abbreviates: murine lymphocytic leukemia (P388), read-out: ED50 P388 (nanomolar value in parentheses).

As to `CC[C@H](C)[C@@H]([C@@H](CC(=O)N1CCC[C@H]1[C@H](OC)[C@@H](C)C(=O)NCCc1ccc(OP(=O)([O-])[O-])cc1)OC)N(C)C(=O)[C@@H](NC(=O)[C@H](C(C)C)N(C)C)C(C)C.[Li+].[Li+]` [Compound 3a, Lithium Auristatin TP], in data set [1] (in distilled water at 23° C.), the Solubility is reported as above 65 mg/mL.
Consider `CC[C@H](C)[C@@H]([C@@H](CC(=O)N1CCC[C@H]1[C@H](OC)[C@@H](C)C(=O)NCCc1ccc(OP(=O)([O-])[O-])cc1)OC)N(C)C(=O)[C@@H](NC(=O)[C@H](C(C)C)N(C)C)C(C)C.[K+].[K+]` [Compound 3c, Potassium Auristatin TP], for which, in data set [1] (in distilled water at 23° C.), the Solubility is recorded as above 120 mg/mL. Also, the “Activity against P388 (in words)” value in [2] is recorded as “exceptional activity”. Besides, the “ED50 P388” value in data set [2] (setting [5]) was 7.6 ng/mL. Besides, the EC50 in data set [2] (setting [6]) came to 8.7 nM.
The compound `C1COCCN1.CC[C@H](C)[C@@H]([C@@H](CC(=O)N1CCC[C@H]1[C@H](OC)[C@@H](C)C(=O)NCCc1ccc(OP(=O)(O)O)cc1)OC)N(C)C(=O)[C@@H](NC(=O)[C@H](C(C)C)N(C)C)C(C)C` [Compound 3d, Morpholine Auristatin TP] returned a Solubility in data set [1] (in distilled water at 23° C.) above 72 mg/mL.
In [1] (in distilled water at 23° C.), `CC[C@H](C)[C@@H]([C@@H](CC(=O)N1CCC[C@H]1[C@H](OC)[C@@H](C)C(=O)NCCc1ccc(OP(=O)(O)O)cc1)OC)N(C)C(=O)[C@@H](NC(=O)[C@H](C(C)C)N(C)C)C(C)C.NC(CO)(CO)CO` [Compound 3f, TRIS Auristatin TP] returned a Solubility above 51 mg/mL.
For `CC[C@H](C)[C@@H]([C@@H](CC(=O)N1CCC[C@H]1[C@H](OC)[C@@H](C)C(=O)Nc1ccc2ncccc2c1)OC)N(C)C(=O)[C@@H](NC(=O)[C@H](C(C)C)N(C)C)C(C)C` [Compound 5, Dov-Val-Dil-Dap-6-aminoquinoline], in the data set with prostate (DU-145), the “GI50 DU-145” value came out at 0.3 ng/mL (≈ 0.000414 µM) and the GI50 is 0.41 nM. Moreover, in the data set with pancreas (BXPC-3), the “GI50 BXPC-3” value worked out at 0.00031 µg/mL (≈ 0.000428 µM) and the GI50 was determined as 0.43 nM. In [2], the “Activity against P388 (in words)” value was “exceptional activity”. For the same compound, the “ED50 P388” value in data set [2] (setting [5]) is 2.6 ng/mL (≈ 0.00359 µM). Also, in [2] (setting [6]), the EC50 worked out at 3.59 nM. In [3], the “Activity against minipanel of human cancer cell lines (in words)” value (“Activity against minipanel” below) is recorded as “similarly strong activity” and the “GI50 (order of magnitude over the cell lines)” value is given as 10^−4 μg/mL. In the data set with breast (MCF-7), the “GI50 MCF-7” value is 0.14 ng/mL (≈ 0.000193 µM) and the GI50 is 0.19 nM. In the data set on CNS (SF-268), the “GI50 SF-268” value was 0.16 ng/mL (≈ 0.000221 µM) and the GI50 amounted to 0.22 nM. In the data set on colon (KM20L2), the “GI50 KM20L2” value amounted to 0.25 ng/mL (≈ 0.000345 µM) and the GI50 came to 0.35 nM. In addition, in the data set with lung (NCI-H460), the “GI50 NCI-H460” value came out at 0.36 ng/mL (≈ 0.000497 µM) and the GI50 came out at 0.5 nM.
For the compound `CC[C@H](C)[C@@H]([C@@H](CC(=O)N1CCC[C@H]1[C@H](OC)[C@@H](C)C(=O)NCCc1ccc(O)cc1)OC)N(C)C(=O)[C@@H](NC(=O)[C@H](C(C)C)N(C)C)C(C)C` [Compound 9, Dov-Val-Dil-Dap-4-hydroxyphenethylamide], the Solubility in data set [1] is given as below 1 mg/mL. Further, in data set [2] (Mus musculus, P388, read-out: ED50 P388 (nanomolar value in parentheses)), the EC50 was determined as 5 nM. Besides, in data set [2], the “Activity against P388 (in words)” value was “exceptional activity”. Further, the “ED50 P388” value in data set [2] (setting [5]) turned out to be 3.6 ng/mL (≈ 0.00501 µM).
Turning to `CCC(C)C(C(CC(=O)N1CCCC1C(OC)C(C)C(=O)NCCc1ccc(OP(=O)(O)O)cc1)OC)N(C)C(=O)C(NC(=O)C(C(C)C)N(C)C)C(C)C` (stereo not drawn) [Compound 10b, Dov-Val-Dil-Dap-4-(dihydrophosphoryloxy)phenethylamide], in data set [4], the “Stability of the pure substance (in words)” value is recorded as “quite unstable”.
Regarding “Dov-Val-Dil-Dap-2-aminoquinoline [Compound 4]”, in the data set on prostate (DU-145), the “GI50 DU-145” value was 23 ng/mL and the GI50 amounted to 31.8 nM. In the data set with pancreas (BXPC-3), the “GI50 BXPC-3” value stood at 0.029 µg/mL and the GI50 stood at 40.1 nM. Also, in [2], the “Activity against P388 (in words)” value is on record as “exceptional activity”. In [2] (setting [5]), the “ED50 P388” value came out at 31 ng/mL. The EC50 in data set [2] (setting [6]) is 42.8 nM. Besides, in data set [3], the “Activity against minipanel” value was “similarly strong activity” and the “GI50 (order of magnitude over the cell lines)” value is recorded as 10^−2-10^−3 μg/mL. For the same compound, in the data set with breast (MCF-7), the “GI50 MCF-7” value amounted to 4.6 ng/mL and the GI50 amounted to 6.35 nM. Moreover, in the data set on CNS (SF-268), the “GI50 SF-268” value worked out at 29 ng/mL and the GI50 was 40.1 nM. For the same compound, in the data set on colon (KM20L2), the “GI50 KM20L2” value was determined as 7.7 ng/mL and the GI50 amounted to 10.6 nM. Besides, in the data set with lung (NCI-H460), the “GI50 NCI-H460” value was 16 ng/mL and the GI50 is 22.1 nM.
Turning to Sodium Auristatin TP [Compound 3b], in the data set with prostate (DU-145), the “GI50 DU-145” value was 0.54 ng/mL and the GI50 is 0.64 nM. In data set [1] (in distilled water at 23° C.), this compound yielded a Solubility above 236 mg/mL. In addition, in the data set with pancreas (BXPC-3), the “GI50 BXPC-3” value was determined as 0.046 µg/mL and the GI50 was 54.6 nM. Further, the “Activity against P388 (in words)” value in data set [2] was “exceptional activity”. Further, the “ED50 P388” value in [2] (setting [5]) is below 1 ng/mL. Besides, the EC50 in data set [2] (setting [6]) is below 1.2 nM. Moreover, in data set [3], the “Activity against minipanel” value is reported as “similarly strong activity” and the “GI50 (order of magnitude over the cell lines)” value is 10^−2-10^−4 μg/mL. In the data set with breast (MCF-7), the “GI50 MCF-7” value amounted to 0.68 ng/mL and the concentration for 50% growth inhibition (GI50) turned out to be 0.81 nM. For the same compound, in the data set on CNS (SF-268), the “GI50 SF-268” value came out at 1.25 ng/mL and the GI50 is 1.48 nM. In addition, in the data set with colon (KM20L2), the “GI50 KM20L2” value turned out to be 0.61 ng/mL and the GI50 was 0.72 nM. Further, in the data set with lung (NCI-H460), the “GI50 NCI-H460” value is 0.88 ng/mL and the GI50 amounted to 1.05 nM.
